Among the data in patent US12459932B2, “KIF18A inhibitors” (AMGEN INC., priority 2018, dated 2025) are IC50 values, retold here.

Each structure is given as a SMILES string.

In this experiment the target is T1, Recombinant human KIF18A (1-467 His-tagged) (Homo sapiens, UniProt Q8NI77).
T1 construct: Recombinant human KIF18A (1-467 His-tagged) protein; His
T1 sequence (Q8NI77 1-467): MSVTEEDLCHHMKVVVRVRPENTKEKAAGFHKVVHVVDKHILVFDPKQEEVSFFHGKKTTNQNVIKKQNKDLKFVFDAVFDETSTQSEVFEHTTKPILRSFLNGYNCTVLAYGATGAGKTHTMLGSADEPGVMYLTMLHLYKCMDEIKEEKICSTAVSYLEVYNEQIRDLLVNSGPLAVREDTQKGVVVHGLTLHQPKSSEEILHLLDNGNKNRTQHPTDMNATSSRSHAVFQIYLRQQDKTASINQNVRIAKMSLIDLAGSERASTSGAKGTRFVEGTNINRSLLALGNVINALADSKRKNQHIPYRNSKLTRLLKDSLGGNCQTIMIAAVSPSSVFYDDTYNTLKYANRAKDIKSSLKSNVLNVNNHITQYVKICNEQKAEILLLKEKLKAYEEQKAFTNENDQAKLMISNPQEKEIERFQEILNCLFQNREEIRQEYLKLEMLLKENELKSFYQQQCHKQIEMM
T1 sequence (P02550 whole entry partner): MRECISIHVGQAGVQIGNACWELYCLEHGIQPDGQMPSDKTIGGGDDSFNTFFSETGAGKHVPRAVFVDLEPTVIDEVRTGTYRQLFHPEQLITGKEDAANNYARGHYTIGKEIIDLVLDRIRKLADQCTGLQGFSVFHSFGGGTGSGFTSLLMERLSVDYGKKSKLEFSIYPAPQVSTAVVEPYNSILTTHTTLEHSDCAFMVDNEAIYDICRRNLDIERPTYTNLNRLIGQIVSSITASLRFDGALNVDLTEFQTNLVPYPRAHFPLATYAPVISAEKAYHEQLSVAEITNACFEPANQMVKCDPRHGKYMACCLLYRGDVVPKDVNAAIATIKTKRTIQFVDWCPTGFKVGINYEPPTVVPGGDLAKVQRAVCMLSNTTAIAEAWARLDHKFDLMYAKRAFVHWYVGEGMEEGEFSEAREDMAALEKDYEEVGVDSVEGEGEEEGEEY
T1 sequence (P02554 whole entry partner): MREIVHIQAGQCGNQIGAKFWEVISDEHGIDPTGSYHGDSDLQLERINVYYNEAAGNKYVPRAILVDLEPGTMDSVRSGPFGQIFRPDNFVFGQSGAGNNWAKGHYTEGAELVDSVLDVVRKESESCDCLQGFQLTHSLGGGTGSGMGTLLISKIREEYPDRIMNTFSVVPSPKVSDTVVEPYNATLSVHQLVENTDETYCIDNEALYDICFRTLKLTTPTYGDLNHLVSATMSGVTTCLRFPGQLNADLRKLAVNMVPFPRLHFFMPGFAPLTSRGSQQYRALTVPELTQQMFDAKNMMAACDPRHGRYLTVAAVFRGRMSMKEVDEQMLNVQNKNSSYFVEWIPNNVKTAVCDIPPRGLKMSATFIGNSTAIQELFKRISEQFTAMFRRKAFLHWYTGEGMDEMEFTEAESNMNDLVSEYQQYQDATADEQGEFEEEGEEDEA
In words: KIF18A Enzyme Assay: microtubule-stimulated ATPase activity (ADP-Glo). Type of experiment: biochemical. Conditions: 30 nM KIF18A, 30 μg/mL pig microtubules, ATP 75 μM (Km), ADP-Glo luminescence. In outline: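 Measures microtubule-stimulated ATPase activity as ADP formed, detected by luminescence. Compounds were tested as 2-fold serial dilutions over 22 points. IC50 values came from four-parameter logistic fits.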
For orientation: In ADP-Glo the light output rises with the ADP produced.
On to `Cc1cc(NC(=O)c2ccc(NS(=O)(=O)C3CCC3)cc2N2CCC3(CC2)CC3)nc(N2CC(F)(F)C2)c1` [Example 7-30, 4-(Cyclobutanesulfonamido)-N-(6-(3,3-difluoroazetidin-1-yl)-4-methylpyridin-2-yl)-2-(6-azaspiro[2.5]octan-6-yl)benzamide], for which the IC50 (commonly the concentration at which inhibition is half-maximal) is 78 nM.

On to `Cc1cc(NC(=O)c2ccc(NS(=O)(=O)CC3CC3)cc2N2CCC3(CC2)CC3)nc(N2CC(F)(F)C2)c1` [Example 7-31, 4-((Cyclopropylmethyl)sulfonamido)-N-(6-(3,3-difluoroazetidin-1-yl)-4-methylpyridin-2-yl)-2-(6-azaspiro[2.5]octan-6-yl)benzamide], for which the IC50 worked out at 59 nM.

Consider `Cc1cc(NC(=O)c2ccc(NS(=O)(=O)C3COC3)cc2N2CCC3(CC2)CC3)nc(N2CC(F)(F)C2)c1` [Example 7-32, N-(6-(3,3-Difluoroazetidin-1-yl)-4-methylpyridin-2-yl)-4-(oxetane-3-sulfonamido)-2-(6-azaspiro[2.5]octan-6-yl)benzamide], for which the IC50 stood at 25 nM.

In the case of `Cc1cc(NC(=O)c2ccc(NS(=O)(=O)C3CC3)cc2N2CCC3(CC2)CC3)nc(N2CC(F)(F)C2)c1` [Example 7-34, 4-(Cyclopropanesulfonamido)-N-(6-(3,3-difluoroazetidin-1-yl)-4-methylpyridin-2-yl)-2-(6-azaspiro[2.5]octan-6-yl)benzamide], the IC50 was found to be 41 nM.

In the case of `C[C@@H]1CN(c2cccc(NC(=O)c3ccc(NS(=O)(=O)CCF)cc3N3CCC4(CC3)CC4)n2)CCO1` [Example 7-35, (R)-4-((2-Fluoroethyl)sulfonamido)-N-(6-(2-methylmorpholino)pyridin-2-yl)-2-(6-azaspiro[2.5]octan-6-yl)benzamide], the IC50 came out at 24 nM.

As to `Cc1cc(NC(=O)c2ccc(NS(=O)(=O)CF)cc2N2CCC3(CC2)CC3)nc(N2CCO[C@H](C)C2)c1` [Example 7-36, (R)-4-((Fluoromethyl)sulfonamido)-N-(4-methyl-6-(2-methylmorpholino)pyridin-2-yl)-2-(6-azaspiro[2.5]octan-6-yl)benzamide], the IC50 was 62 nM.

For `CCS(=O)(=O)Nc1ccc(C(=O)Nc2cccc(N3CCO[C@H](C)C3)n2)c(N2CCC3(CC2)CC3)c1` [Example 7-37, (R)-4-(Ethylsulfonamido)-N-(6-(2-methylmorpholino)pyridin-2-yl)-2-(6-azaspiro[2.5]octan-6-yl)benzamide], the IC50 was 50 nM.

`C[C@@H]1CN(c2cccc(NC(=O)c3ccc(NS(=O)(=O)CF)cc3N3CCC4(CC3)CC4)n2)CCO1` [Example 7-38, (R)-4-((Fluoromethyl)sulfonamido)-N-(6-(2-methylmorpholino)pyridin-2-yl)-2-(6-azaspiro[2.5]octan-6-yl)benzamide]: the IC50 was determined as 48 nM.

In the case of `C[C@@H]1CN(c2cccc(NC(=O)c3ccc(NS(=O)(=O)CC(F)(F)F)cc3N3CCC4(CC3)CC4)n2)CCO1` [Example 7-39, (R)-N-(6-(2-methylmorpholino)pyridin-2-yl)-2-(6-azaspiro[2.5]octan-6-yl)-4-((2,2,2-trifluoroethyl)sulfonamido)benzamide], the IC50 turned out to be 135 nM.

For `C[C@@H]1CN(c2cccc(NC(=O)c3ccc(NS(=O)(=O)C(F)(F)F)cc3N3CCC4(CC3)CC4)n2)CCO1` [Example 7-41, (R)-N-(6-(2-Methylmorpholino)pyridin-2-yl)-2-(6-azaspiro[2.5]octan-6-yl)-4-((trifluoromethyl)sulfonamido)benzamide], the IC50 is 207 nM.

For `C[C@@H]1CN(c2cccc(NC(=O)c3ccc(NS(=O)(=O)CC(C)(C)O)cc3N3CCC4(CC3)CC4)n2)CCO1` [Example 7-42, (R)-4-((2-Hydroxy-2-methylpropyl)sulfonamido)-N-(6-(2-methylmorpholino)pyridin-2-yl)-2-(6-azaspiro[2.5]octan-6-yl)benzamide], the IC50 came to 111 nM.

In the case of `CC(C)(C)NS(=O)(=O)c1cccc(NC(=O)c2ccc(NS(C)(=O)=O)cc2N2CCC3(CC2)CC3)n1` [Example 7-43, N-(6-(N-(tert-Butyl)sulfamoyl)pyridin-2-yl)-4-(methylsulfonamido)-2-(6-azaspiro[2.5]octan-6-yl)benzamide], the half-maximal inhibitory concentration (IC50) is 55 nM.

`O=C(Nc1cncc(N2CCC(F)(F)CC2)n1)c1ccc(NS(=O)(=O)CCO)cc1N1CCC2(CC1)CC2` [Example 7-44, N-(6-(4,4-Difluoropiperidin-1-yl)pyrazin-2-yl)-4-((2-hydroxyethyl)sulfonamido)-2-(6-azaspiro[2.5]octan-6-yl)benzamide]: the IC50 worked out at 16 nM.

Turning to `Cc1cc(NC(=O)c2ccc(NS(=O)(=O)C3(CO)CC3)cc2N2CCC3(CC2)CC3)nc(N2CCC(F)(F)CC2)c1` [Example 10, N-(6-(4,4-Difluoropiperidin-1-yl)-4-methylpyridin-2-yl)-4-((1-(hydroxymethyl)cyclopropane)-1-sulfonamido)-2-(6-azaspiro[2.5]octan-6-yl)benzamide], the IC50 is 122 nM.

As to `C[C@@H]1CN(c2cccc(NC(=O)c3ccc(NS(=O)(=O)C4(CO)CC4)cc3N3CCC4(CC3)CC4)n2)CCO1` [Example 10-1, (R)-4-((1-(Hydroxymethyl)cyclopropane)-1-sulfonamido)-N-(6-(2-methylmorpholino)pyridin-2-yl)-2-(6-azaspiro[2.5]octan-6-yl) benzamide], the IC50 stood at 57 nM.

On to `Cc1cc(NC(=O)c2ccc(NS(=O)(=O)C3(CO)CC3)cc2N2CCC3(CC2)CC3)nc(N2CC(F)(F)C2)c1` [Example 10-2, N-(6-(3,3-Difluoroazetidin-1-yl)-4-methylpyridin-2-yl)-4-((1-(hydroxymethyl)cyclopropane)-1-sulfonamido)-2-(6-azaspiro[2.5]octan-6-yl)benzamide], for which the IC50 came out at 76 nM.

As for `Cc1cc(NC(=O)c2ccc(NS(=O)(=O)CCO)cc2N2CCC3(CC2)CC3)nc(N2CC(F)(F)C2)c1` [Example 11, N-(6-(3,3-Difluoroazetidin-1-yl)-4-methylpyridin-2-yl)-4-((2-hydroxyethyl)sulfonamido)-2-(6-azaspiro[2.5]octan-6-yl)benzamide], the IC50 came out at 31 nM.

Regarding `CC1(S(=O)(=O)Nc2ccc(C(=O)Nc3cccc(OCC4CC4)n3)c(N3CCC4(CC3)CC4)c2)CC1` [Example 14, N-(6-(Cyclopropylmethoxy)pyridin-2-yl)-4-((1-methylcyclopropane)-1-sulfonamido)-2-(6-azaspiro[2.5]octan-6-yl)benzamide], the IC50 was determined as 19 nM.

Regarding `CC(Oc1cccc(NC(=O)c2ccc(NS(=O)(=O)CCO)cc2N2CCC3(CC2)CC3)n1)C1CC1` (centres unmarked) [Example 16-1, N-(6-(1-Cyclopropylethoxy)pyridin-2-yl)-4-((2-hydroxyethyl)sulfonamido)-2-(6-azaspiro[2.5]octan-6-yl)benzamide], the IC50 amounted to 51 nM.

Consider `CC1(COc2cccc(NC(=O)c3ccc(NS(=O)(=O)CCO)cc3N3CCC4(CC3)CC4)n2)COC1` [Example 16-2, 4-((2-Hydroxyethyl)sulfonamido)-N-(6-((3-methyloxetan-3-yl)methoxy)pyridin-2-yl)-2-(6-azaspiro[2.5]octan-6-yl)benzamide], for which the IC50 amounted to 50 nM.

On to `CN1CC(COc2cccc(NC(=O)c3ccc(NS(=O)(=O)CCO)cc3N3CCC4(CC3)CC4)n2)C1` [Example 16-3, 4-((2-Hydroxyethyl)sulfonamido)-N-(6-((1-methylazetidin-3-yl)methoxy)pyridin-2-yl)-2-(6-azaspiro[2.5]octan-6-yl)benzamide], for which the IC50 stood at 63 nM.

As to `CC(O)COc1cccc(NC(=O)c2ccc(NS(=O)(=O)CCO)cc2N2CCC3(CC2)CC3)n1` (centres unmarked) [Example 16-4, 4-((2-Hydroxyethyl)sulfonamido)-N-(6-(2-hydroxypropoxy)pyridin-2-yl)-2-(6-azaspiro[2.5]octan-6-yl)benzamide], the IC50 turned out to be 115 nM.

In the case of `CC(C)(O)CCOc1cccc(NC(=O)c2ccc(NS(=O)(=O)CCO)cc2N2CCC3(CC2)CC3)n1` [Example 16-5, N-(6-(3-Hydroxy-3-methylbutoxy)pyridin-2-yl)-4-((2-hydroxyethyl)sulfonamido)-2-(6-azaspiro[2.5]octan-6-yl)benzamide], the IC50 turned out to be 84 nM.

As for `O=C(Nc1cccc(OCCC(O)C(F)(F)F)n1)c1ccc(NS(=O)(=O)CCO)cc1N1CCC2(CC1)CC2` (centres unmarked) [Example 16-6, 4-((2-Hydroxyethyl)sulfonamido)-2-(6-azaspiro[2.5]octan-6-yl)-N-(6-(4,4,4-trifluoro-3-hydroxybutoxy)pyridin-2-yl)benzamide], the IC50 came out at 81 nM.

In the case of `CC(O)CCOc1cccc(NC(=O)c2ccc(NS(=O)(=O)CCO)cc2N2CCC3(CC2)CC3)n1` (centres unmarked) [Example 16-7, N-(6-(3-Hydroxybutoxy)pyridin-2-yl)-4-((2-hydroxyethyl)sulfonamido)-2-(6-azaspiro[2.5]octan-6-yl)benzamide], the IC50 is 31 nM.

`O=C(Nc1cccc(OCC(O)C(F)(F)F)n1)c1ccc(NS(=O)(=O)CCO)cc1N1CCC2(CC1)CC2` (centres unmarked) [Example 16-8, 4-((2-Hydroxyethyl)sulfonamido)-2-(6-azaspiro[2.5]octan-6-yl)-N-(6-(3,3,3-trifluoro-2-hydroxypropoxy)pyridin-2-yl)benzamide]: the IC50 amounted to 18 nM.

As for `O=C(Nc1cccc(OCCC(F)F)n1)c1ccc(NS(=O)(=O)CCO)cc1N1CCC2(CC1)CC2` [Example 16-9, N-(6-(3,3-Difluoropropoxy)pyridin-2-yl)-4-((2-hydroxyethyl)sulfonamido)-2-(6-azaspiro[2.5]octan-6-yl)benzamide], the IC50 is 51 nM.

On to `Cc1cc(NC(=O)c2ccc(NS(=O)(=O)CCO)cc2N2CCC3(CC2)CC3)nc(OCCC(F)(F)F)c1` [Example 17, 4-((2-Hydroxyethyl)sulfonamido)-N-(4-methyl-6-(3,3,3-trifluoropropoxy)pyridin-2-yl)-2-(6-azaspiro[2.5]octan-6-yl)benzamide], for which the IC50 stood at 24 nM.

Regarding `Cc1cc(NC(=O)c2ccc(NS(=O)(=O)CCO)cc2N2CCC3(CC2)CC3)nc(OCC(O)C(F)(F)F)c1` (centres unmarked) [Example 17-1, 4-((2-Hydroxyethyl)sulfonamido)-N-(4-methyl-6-(3,3,3-trifluoro-2-hydroxypropoxy)pyridin-2-yl)-2-(6-azaspiro[2.5]octan-6-yl)benzamide], the IC50 stood at 68 nM.
